Measured values published in ChEMBL document CHEMBL4400510, “Synthesis and antitubercular evaluation of reduced lipophilic imidazo[1,2-a]pyridine-3-carboxamide derivatives” (Eur J Med Chem, 2019).

How the values were obtained:
[1] = test system: Mycobacterium tuberculosis; assay: Antitubercular activity against multi drug resistant Mycobacterium tuberculosis 16995 after 7 days by MABA method; format: functional; settings: Mycobacterium tuberculosis, 16995, 168 h
[2] = test system: Mycobacterium tuberculosis; assay: Antitubercular activity against multi drug resistant Mycobacterium tuberculosis 16833 after 7 days by MABA method; format: functional; settings: Mycobacterium tuberculosis, 16833, 168 h
[3] = Selectivity index, ratio of CC50 for African green monkey Vero cells to MIC>90 multi drug resistant Mycobacterium tuberculosis 16995; format: toxicity; settings: read-out: Selectivity Index

With `CCc1nc2ccc(Cl)cn2c1C(=O)NCc1ccc(N2CC3CCC2CN3CC2CCCCC2)cc1` (configuration not stated) the MIC90 [1] was under 0.035 µM and the MIC90 [2] was under 0.035 µM.
`CO[C@H]1/C=C/O[C@@]2(C)Oc3c(C)c(O)c4c(O)c(c(/C=N/N5CCN(C)CC5)c(O)c4c3C2=O)NC(=O)/C(C)=C\C=C\[C@H](C)[C@H](O)[C@@H](C)[C@@H](O)[C@@H](C)[C@H](OC(C)=O)[C@@H]1C` [RIFAMPIN] showed an MIC90 [1] of over 40 µM and an MIC90 [2] of over 40 µM.
`CCc1nc2ccc(Cl)cn2c1C(=O)NCc1ccc(N2CCN(CC3CCCCC3)CC2)cc1` showed an MIC90 [1] of under 0.035 µM, an MIC90 [2] of under 0.035 µM and a selectivity ratio [3] of over 1000.
In the case of `CCc1nc2ccc(Cl)cn2c1C(=O)NCc1ccc(N2CCC(c3ccc(OC(F)(F)F)cc3)CC2)cc1` [TELACEBEC], the MIC90 [1] is reported as under 0.035 µM, the MIC90 [2] is reported as under 0.035 µM and the selectivity ratio [3] is reported as over 1000.
`CCc1nc2ccc(Cl)cn2c1C(=O)NCc1ccc(N2CCN(Cc3ccc(OC(F)(F)F)cc3)CC2)cc1` gave an MIC90 [1] of under 0.035 µM and an MIC90 [2] of under 0.035 µM.
With `NNC(=O)c1ccncc1` [ISONIAZID] the MIC90 [1] was over 40 µM and the MIC90 [2] was over 40 µM.
Work on `CCc1nc2ccc(Cl)cn2c1C(=O)NCc1ccc(N2CC3CN(c4ccc(OC(F)(F)F)cc4)CC3C2)cc1` (configuration not stated) yielded an MIC90 [1] of under 0.035 µM and an MIC90 [2] of under 0.035 µM.
Work on `CCc1nc2ccc(Cl)cn2c1C(=O)NCc1ccc(N2CC3CN(Cc4ccc(OC(F)(F)F)cc4)CC3C2)cc1` (configuration not stated) yielded an MIC90 [1] of under 0.035 µM, an MIC90 [2] of under 0.035 µM and a selectivity ratio [3] of over 586.
`CCc1nc2ccc(Cl)cn2c1C(=O)NCc1ccc(N2CC3CN(CC4CCCCC4)CC3C2)cc1` (configuration not stated) gave an MIC90 [1] of under 0.035 µM, an MIC90 [2] of under 0.035 µM and a selectivity ratio [3] of over 1000.
For `CCc1nc2ccc(Cl)cn2c1C(=O)NCc1ccc(N2CCC3(CC2)CCN(c2ccc(OC(F)(F)F)cc2)CC3)cc1`, the MIC90 [1] was under 0.035 µM, the MIC90 [2] was under 0.035 µM and the selectivity ratio [3] was over 1000.
In the case of `O=c1nc(N2CCN(CC3CCCCC3)CC2)sc2c([N+](=O)[O-])cc(C(F)(F)F)cc12` [MACOZINONE], the MIC90 [1] is reported as under 0.035 µM and the MIC90 [2] is reported as under 0.035 µM.
